What was measured:
B-Raf V600E = B-Raf V600E (Homo sapiens, UniProt P15056, V600E); experiment: Kinase activity assay, B-Raf V600E; assay type: biochemical; conditions: read-out: activity toward kinase B-Raf V600E, IC50
Kdr = Kdr (Homo sapiens, UniProt P35968); experiment: Kinase activity assay, Kdr
B-Raf = B-Raf (Homo sapiens, UniProt P15056); experiment: Kinase activity assay, B-Raf; assay type: biochemical; conditions: read-out: activity toward kinase B-Raf, IC50
B-Raf, sequence (P15056 whole entry): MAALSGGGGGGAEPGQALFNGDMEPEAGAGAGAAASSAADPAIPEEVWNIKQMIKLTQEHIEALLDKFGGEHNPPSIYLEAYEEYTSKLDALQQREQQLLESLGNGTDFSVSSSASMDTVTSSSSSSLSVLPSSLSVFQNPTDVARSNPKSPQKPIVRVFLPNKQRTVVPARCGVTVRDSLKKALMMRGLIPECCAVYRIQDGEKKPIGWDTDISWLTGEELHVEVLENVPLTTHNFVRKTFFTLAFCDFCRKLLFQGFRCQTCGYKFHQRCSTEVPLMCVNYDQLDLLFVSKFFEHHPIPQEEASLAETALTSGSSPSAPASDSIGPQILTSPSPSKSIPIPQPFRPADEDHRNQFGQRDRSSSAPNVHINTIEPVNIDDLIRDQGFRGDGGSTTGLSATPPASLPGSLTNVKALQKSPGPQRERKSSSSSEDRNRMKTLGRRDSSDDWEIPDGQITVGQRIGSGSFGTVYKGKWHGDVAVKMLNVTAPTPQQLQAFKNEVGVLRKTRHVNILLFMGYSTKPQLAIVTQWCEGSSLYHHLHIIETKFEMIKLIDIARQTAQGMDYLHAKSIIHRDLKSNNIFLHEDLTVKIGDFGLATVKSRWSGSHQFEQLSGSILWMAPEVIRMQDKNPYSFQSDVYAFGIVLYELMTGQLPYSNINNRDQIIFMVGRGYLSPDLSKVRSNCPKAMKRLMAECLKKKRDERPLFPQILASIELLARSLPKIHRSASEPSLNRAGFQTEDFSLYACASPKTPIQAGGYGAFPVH

B-Raf V600E, sequence (P15056 whole entry V600E): as the sequence (P15056 whole entry) above, with V600E counted along it
Kdr, sequence (P35968 20-1356): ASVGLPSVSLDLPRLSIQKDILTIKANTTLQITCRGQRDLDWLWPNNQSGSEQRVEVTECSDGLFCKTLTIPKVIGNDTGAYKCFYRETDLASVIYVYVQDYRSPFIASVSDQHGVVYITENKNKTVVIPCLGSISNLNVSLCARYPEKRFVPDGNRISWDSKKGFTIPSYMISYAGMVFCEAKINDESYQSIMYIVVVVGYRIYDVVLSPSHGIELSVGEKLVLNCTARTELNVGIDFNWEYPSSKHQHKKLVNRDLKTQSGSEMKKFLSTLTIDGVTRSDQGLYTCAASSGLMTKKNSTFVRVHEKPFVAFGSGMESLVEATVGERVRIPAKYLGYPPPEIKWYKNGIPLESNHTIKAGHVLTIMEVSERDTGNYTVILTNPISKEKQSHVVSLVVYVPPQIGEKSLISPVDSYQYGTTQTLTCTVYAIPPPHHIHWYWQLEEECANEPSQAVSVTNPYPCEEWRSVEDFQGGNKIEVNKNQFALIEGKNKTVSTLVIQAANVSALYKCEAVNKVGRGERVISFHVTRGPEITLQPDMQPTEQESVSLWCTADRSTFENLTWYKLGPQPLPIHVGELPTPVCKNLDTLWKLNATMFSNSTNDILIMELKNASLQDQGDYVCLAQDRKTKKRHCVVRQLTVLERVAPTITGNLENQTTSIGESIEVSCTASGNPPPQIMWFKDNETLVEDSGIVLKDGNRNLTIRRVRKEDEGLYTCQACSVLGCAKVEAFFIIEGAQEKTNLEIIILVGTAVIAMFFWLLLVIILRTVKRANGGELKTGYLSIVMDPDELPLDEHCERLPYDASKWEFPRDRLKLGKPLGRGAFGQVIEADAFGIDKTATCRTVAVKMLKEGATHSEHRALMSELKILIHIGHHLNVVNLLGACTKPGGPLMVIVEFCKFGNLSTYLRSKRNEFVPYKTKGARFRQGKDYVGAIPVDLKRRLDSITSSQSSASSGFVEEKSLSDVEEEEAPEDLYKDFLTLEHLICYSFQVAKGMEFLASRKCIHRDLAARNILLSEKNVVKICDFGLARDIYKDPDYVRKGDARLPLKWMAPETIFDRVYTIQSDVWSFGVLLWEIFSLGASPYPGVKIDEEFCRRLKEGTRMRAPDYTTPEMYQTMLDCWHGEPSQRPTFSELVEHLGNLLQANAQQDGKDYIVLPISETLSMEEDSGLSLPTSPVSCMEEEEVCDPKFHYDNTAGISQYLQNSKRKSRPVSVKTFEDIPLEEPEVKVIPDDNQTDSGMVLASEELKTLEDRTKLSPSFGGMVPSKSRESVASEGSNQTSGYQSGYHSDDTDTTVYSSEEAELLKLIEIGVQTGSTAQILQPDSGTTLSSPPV

IC50 (B-Raf V600E) [µM] | IC50 (Kdr) [µM] | IC50 (B-Raf) [µM] | SMILES
≤ 10 | ≤ 10 |  | Cc1c(S(=O)(=O)Nc2ccc(F)c(C(=O)c3c[nH]c4ncc(C#N)cc34)c2F)cnn1C [P-2082, 1,5-Dimethyl-1H-pyrazole-4-sulfonic acid [3-(5-cyano-1H-pyrrolo[2,3-b]pyridine-3-carbonyl)-2,4-difluoro-phenyl]-amide]
≤ 10 |  |  | Cc1c(S(=O)(=O)Nc2cccc(C(=O)c3c[nH]c4ncc(C#N)cc34)c2F)cnn1C [P-2091, 1,5-Dimethyl-1H-pyrazole-4-sulfonic acid [3-(5-cyano-1H-pyrrolo[2,3-b]pyridine-3-carbonyl)-2-fluoro-phenyl]-amide]
≤ 10 | ≤ 10 |  | N#Cc1cnc2[nH]cc(C(=O)c3c(F)ccc(NS(=O)(=O)Cc4ccccn4)c3F)c2c1 [P-2093, N-[3-(5-Cyano-1H-pyrrolo[2,3-b]pyridine-3-carbonyl)-2,4-difluoro-phenyl]-C-pyridin-2-yl-methanesulfonamide]
≤ 10 | ≤ 10 |  | N#Cc1cnc2[nH]cc(C(=O)c3c(F)ccc(NS(=O)(=O)Cc4ccncc4)c3F)c2c1 [P-2095, N-[3-(5-Cyano-1H-pyrrolo[2,3-b]pyridine-3-carbonyl)-2,4-difluoro-phenyl]-C-pyridin-4-yl-methanesulfonamide]
≤ 10 | ≤ 10 |  | N#Cc1cnc2[nH]cc(C(=O)c3cccc(NS(=O)(=O)Cc4cccnc4)c3F)c2c1 [P-2096, N-[3-(5-Cyano-1H-pyrrolo[2,3-b]pyridine-3-carbonyl)-2-fluoro-phenyl]-C-pyridin-3-yl-methanesulfonamide]
≤ 10 | ≤ 10 |  | N#Cc1cnc2[nH]cc(C(=O)c3cccc(NS(=O)(=O)Cc4ccncc4)c3F)c2c1 [P-2097, N-[3-(5-Cyano-1H-pyrrolo[2,3-b]pyridine-3-carbonyl)-2-fluoro-phenyl]-C-pyridin-4-yl-methanesulfonamide]
≤ 10 |  |  | N#Cc1cnc2[nH]cc(C(=O)c3cccc(NS(=O)(=O)Cc4ccccn4)c3F)c2c1 [P-2098, N-[3-(5-Cyano-1H-pyrrolo[2,3-b]pyridine-3-carbonyl)-2-fluoro-phenyl]-C-pyridin-2-yl-methanesulfonamide]
≤ 10 |  | ≤ 10 | CCCS(=O)(=O)Nc1ccc(F)c(C(=O)c2c[nH]c3ncc(S(C)(=O)=O)cc23)c1F [P-2173, Propane-1-sulfonic acid [2,4-difluoro-3-(5-methanesulfonyl-1H-pyrrolo[2,3-b]pyridine-3-carbonyl)-phenyl]-amide]
≤ 10 | ≤ 10 | ≤ 10 | CCCS(=O)(=O)Nc1ccc(F)c(C(=O)c2c[nH]c3ncc(-c4ccc(S(=O)(=O)N5CCCCC5)cc4)cc23)c1F [P-2186, Propane-1-sulfonic acid (2,4-difluoro-3-{5-[4-(piperidine-1-sulfonyl)-phenyl]-1H-pyrrolo[2,3-b]pyridine-3-carbonyl}-phenyl)-amide]
≤ 10 | ≤ 10 | ≤ 10 | CCCS(=O)(=O)Nc1ccc(F)c(C(=O)c2c[nH]c3ncc(-c4cnc(SC)nc4)cc23)c1F [P-2189, Propane-1-sulfonic acid {2,4-difluoro-3-[5-(2-methylsulfanyl-pyrimidin-5-yl)-1H-pyrrolo[2,3-b]pyridine-3-carbonyl]-phenyl}-amide]
 | ≤ 10 |  | O=C(c1c(F)ccc(NS(=O)(=O)C2(C(=O)O)CC2)c1F)c1c[nH]c2ncc(Br)cc12 [P-2349, 1-[3-(5-Bromo-1H-pyrrolo[2,3-b]pyridine-3-carbonyl)-2,4-difluoro-phenylsulfamoyl]-cyclopropanecarboxylic acid]
 | ≤ 10 |  | O=C(c1cccc(NS(=O)(=O)C2CCCC2)c1)c1c[nH]c2ncc(F)cc12 [P-2463, Cyclopentanesulfonic acid [3-(5-fluoro-1H-pyrrolo[2,3-b]pyridine-3-carbonyl)-phenyl]-amide]
 | ≤ 10 |  | CN(C)S(=O)(=O)Nc1cccc(C(=O)c2c[nH]c3ncc(Cl)cc23)c1 [P-2470, N,N-dimethylamino-sulfonic acid [3-(5-chloro-1H-pyrrolo[2,3-b]pyridine-3-carbonyl)-phenyl]-amide]

Reference: patent publication US20120122860A1, “SOLID FORMS OF SULFONAMIDES AND AMINO ACIDS” (Plexxikon, Inc., priority 2009, published 2012)
